The text below walks through data of patent US12227492B1, “Pyrimidine nucleosides as anticancer agents against pancreatic cancer” (Florida A&M University, priority 2021, dated 2025).

Where a name gives a salt, the structure may show the parent alone. Read-outs that look alike come from different tables or passages of the source.

A short description of one series: Log P. The series is classed as physicochemical.
A further series concerns MiaPaCa-2 cells. Nature of the series: In vitro cell migration (wound) assay. The series is classed as cell-based. Conditions: 2, 5 and 10 μM, after 48 h, compared with 5-FU, GemHCl. As to the method:
A uniform scratch was made in 90% confluent monolayer culture of MiaPaCa-2 cells and the extent of closure was monitored under microscope and photographed. […] Migrated cells within the scratch were quantified and the distance of migration measured using NIH ImageJ software. […] Over the same incubation time, the cells in the control group (48 h) migrated farther achieving a complete or near closure of the wounds. The results are expressed as the means (±SEM, N=4) relative to the control.
Cell migration assay was conducted to determine the effect of on 5-FU, GemHCl, XYZ-I-71 and XYZ-I-73 MiaPaCa-2 cell motility. Ibidi cell culture inserts were used to generate two confluent monolayers of cells separated by a “wound” for this assay. The cells were seeded in 24-well plates at a cell density of 2.5×10^5, for 24 h at 37° C. At 75% confluency, cells formed adherent monolayers on either side of the tissue culture insert. Prior to treatment, the cells were serum-starved by replacing complete media with base media (DMEM) and then further incubated for 24 hours. After serum starving, the insert was gently removed to generate a gap or “wound’ between the two confluent layers of cells. The monolayers were washed with experimental media and afterwards cells were exposed to varying concentrations of 5-FU, GemHCl, XYZ-I-71 and XYZ-I-73 (1, 2, 5 and 10 μM). […]

Series [1] concerns MiaPaCa-2 pancreatic cancer cell line. Briefly: In vitro cell viability studies (resazurin/Alamar Blue). The series is classed as cell-based. Conditions: for IC50: Homo sapiens, MIA PaCa-2, MiaPaCa-2, 48 hr incubation. As to the method: Prior to viability studies, Dulbecco's modified Eagle medium (DMEM) with high glucose and L-glutamine was supplemented with 10% fetal bovine serum (FBS) and 1% penicillin-streptomycin (PenStrep). Briefly, MiaPaCa-2 cells were seeded at a density of 1×10^3 per well in 96-well plates in triplicates for each drug concentration level and incubated at 5% CO2 and temperature of 37° C. At 70-75% confluence, MiaPaCa-2 cells were treated with compounds XYZ-I-71, XYZ-I-73, 5-Fluorouracil (5-FU), Gemcitabine (Gem) and Irinotecan. Varying concentrations of 4NSG was prepared from its stock solution with growth medium. For 5-Fluorouracil (5-FU), Gemcitabine Hydrochloride (GemHCl) and Irinotecan, a stock solution was prepared with phosphate-buffered saline (PBS) and serially diluted with growth medium to prepare varied concentrations: thus 3, 6, 12, 25, and 100 μM. Cells was treated with 100 μL of each drug concentration in triplicates and incubated for 48 hr. At termination, 20 μL of 0.05% resazurin sodium salt (Alamar Blue®) was added and incubated at optimum conditions (5% CO2, 37° C.) for 4 hr. Fluorimetric analysis was determined at excitation wavelength of 560/580 nm and emission wavelength of 590/610 nm and the percent viable cells per concentration was calculated. For statistical analysis, results are presented as mean±SD. Data were analyzed for significance by one-way ANOVA, using GraphPad Prism 5 Software and IC50 values were determined.
Background: The colour change of resazurin is a common sign of viable cells or microbes.

[2] abbreviates: mean ± SD, read-out: IC50 (μM) against MiaPaCa-2 cell line as determined by cell viability studies.
Setting [3] is: read-out: IC50 values, cytotoxic activity against MiaPaCa-2 cancer line.

Compound `CCCCCCCCCCCC(=O)Nc1nc(=O)n(C2CCCO2)cc1F` (centres unmarked) [XYZ-I-73, N-(5-fluoro-2-oxo-1-(tetrahydrofuran-2-yl)-1,2-dihydropyrimidin-4-yl)dodecanamide] displayed a logP in the series “Log P” of 3.94. In addition, in the series on MiaPaCa-2 cells, the “number of migrated cells towards the wound” value was “significantly inhibited”. For the same compound, the IC50 was found to be 6.81 ± 2.1 µM in series [1] (setting [2]) and 6.81 ± 1.1 µM in series [1] (setting [3]). For the same compound, the “cytotoxic activity against MiaPaCa-2, XYZ-I-73 versus XYZ-I-71” value in series [1] (MiaPaCa-2, FIG. 7) was “significant higher cytotoxic activity”. Besides, in series [1] (MiaPaCa-2), the “efficacy against MiaPaCa-2 cancer line compared with 5-FU (IC50 data)” value is “greater efficacy”.
Turning to `O=c1[nH]cc(F)c(=O)[nH]1` [Compound 5-FU, 5-Fluorouracil, reference compound], in series [1] (setting [2]), the IC50 was found to be 51.1 ± 1.1 µM.
In turn, `CCCCCCCC(=O)Nc1nc(=O)n(C2CCCO2)cc1F` (centres unmarked) [XYZ-I-71, N-(5-fluoro-2-oxo-1-(tetrahydrofuran-2-yl)-1,2-dihydropyrimidin-4-yl)octanamide] registered a logP in the series “Log P” of 2.27. Moreover, in the series on MiaPaCa-2 cells, the “number of migrated cells towards the wound” value is “significantly inhibited”. The results for the IC50 in series [1] (setting [2]) and in series [1] (setting [3]) were 13.8 ± 1.7 µM and 13.8 ± 1.1 µM, respectively. The “efficacy against MiaPaCa-2 cancer line compared with 5-FU (IC50 data)” value in series [1] (MiaPaCa-2) was “greater efficacy”.
In the case of `Nc1ccn([C@@H]2O[C@H](CO)[C@@H](O)C2(F)F)c(=O)n1` [GemHCl, Gemcitabine Hydrochloride, reference compound], the IC50 in series [1] (setting [2]) was found to be 25.3 ± 1.3 µM.
Still for that read-out and setting: the figure for `CCc1c2c(nc3ccc(OC(=O)N4CCC(N5CCCCC5)CC4)cc13)-c1cc3c(c(=O)n1C2)COC(=O)[C@]3(O)CC` [Irinotecan, reference compound] is 28 ± 1.5 µM.

What is called logP is a log measure of how a compound divides between an organic and an aqueous phase. Lower therefore signals lower lipophilicity. As usually defined, the IC50 is the concentration that gives 50% inhibition.
